Consider one compound from patent US20120128807A1, “COMPOSITION FOR PREVENTING OR TREATING IRRITABLE BOWEL SYNDROME” (SK CHEMICALS CO., LTD., priority 2009, published 2012).

One assay deals with neurokinin receptor (Homo sapiens, UniProt P25103). Conditions: non-peptide antagonist which selectively binds to the receptor; cited from earlier work.
In assay [1] the target is T1, neurokinin receptor (U-373MG glioma cell line) (Homo sapiens, UniProt P25103).
T1 construct: Cell line (U-373MG glioma cell line) over-expressing neurokinin receptor; host or cells: U-373MG glioma cell line
T1 sequence (P25103 whole entry): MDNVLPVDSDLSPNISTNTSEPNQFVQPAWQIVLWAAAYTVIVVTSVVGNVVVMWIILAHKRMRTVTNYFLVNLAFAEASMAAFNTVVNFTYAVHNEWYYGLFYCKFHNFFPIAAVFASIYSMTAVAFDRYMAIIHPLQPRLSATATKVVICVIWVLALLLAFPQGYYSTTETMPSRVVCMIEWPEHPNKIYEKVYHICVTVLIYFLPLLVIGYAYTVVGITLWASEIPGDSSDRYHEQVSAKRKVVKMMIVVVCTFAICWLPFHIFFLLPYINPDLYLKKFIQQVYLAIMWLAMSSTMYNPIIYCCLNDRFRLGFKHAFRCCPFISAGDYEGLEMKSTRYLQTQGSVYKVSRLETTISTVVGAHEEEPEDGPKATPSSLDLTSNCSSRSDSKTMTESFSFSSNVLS
Description: Neurokinin receptor inhibition: binding of fluorescent substance P to U-373MG cells. The conditions noted are these: 50 nM sample, 50nM SP. As to the method: Cell line (U-373MG glioma cell line) over-expressing neurokinin receptor was purchased from Korean Cell Line Bank. The cell line was incubated with 5% CO2 in a medium (90% of RPMI 1640, 10% of fetal bovine serum, 100 IU/ml of penicillin, 100 μg/ml of streptomycin, 2 mM of L-glutamine, and 1.0 mM of sodium pyruvate), and was sub-cultured every 6-8 days with 0.25% trypsin solution.
Cells were diluted to have various cell numbers, and were seeded onto a 24-well plate. After 48 hours, substance P (SP) connected with a probe was added in various concentrations. After some time for reaction, the concentration of fluorescence probe-containing SP (Oregon Green488 conjugate, Molecular Probes, Eugene, Oreg.) bound to the receptor was measured with a fluorophotometer according to the number of cells and the concentrations, through which the ideal condition was established [V J. Bennett et al., BMC Chem. Biol., 1:1, 2001]. Non-peptide antagonist, L-733060 (estimated affinity=0.8nM), which selectively binds to the receptor was used as a control [R. Bang et al., J. Pharmacol. Exp. Ther., 305, p 31-39, 2003].
50% Ethanol aqueous solution extract of Atractylodes japonica was solved in DMSO (the final concentration is within 0.1%) and diluted with distilled water. […] Then, cells were dissolved in 5% Triton X-100, and their fluorescence (Ex 485/Em 528) was measured with black, opaque 96-well plate. […]

neurokinin receptor, sequence (P25103 whole entry): as above

With `FC(F)(F)c1cc(CO[C@H]2CCCN[C@H]2c2ccccc2)cc(C(F)(F)F)c1` [Extract L-733060, L-733060], the estimated affinity on neurokinin receptor is 0.8 nM. The “Relative Inhibitory Activity (%)” value in assay [1] is on record as 72 ± 8 %.
